Entries after “also recorded” stand apart in the source; their conditions may differ.
Tests used:
[1] = related amide-cyanoximes, Ref [1, 2] / [1, 3]; cited from earlier work
[2] = potentiometric pH titration for pKa (ionization constant); type: physicochemical; details: isopropyl alcohol (ISA)/water mixture, aqueous pKa, 23° C., Yasuda-Shedlovsky extrapolation to zero ISA
Description: Ionization constants for the new cyanoxime compound 1 [H(DECO)] were determined using a Sirius Analytical Instruments automated titration station (Sussex, UK) equipped with a temperature-controlled bath. The titration was performed three times at 23° C. in an isopropyl alcohol (ISA) water mixture as described below. The weighed amount of compound 1 (3.08 mg) was placed into a titration vial. Sixteen milliliters of ISA water was delivered automatically to the vial. The pH of the solution was adjusted to 10 by adding 0.5 M KOH automatically. The titration with 0.5M HCl was performed automatically until a pH value of 2.5 was reached. To perform the second and third titrations, an additional volume of ISA and water (1 mL and 1 mL) was delivered automatically to the titration vial, respectively. The datasets for the three titrations were combined in the RefinementPro program to create a Multiset for pKa calculation. Also, these datasets were combined and extrapolated to a zero ISA concentration.
The aqueous pKa was calculated with a Yasuda-Shedlovsky extrapolation in the RefinementPro software.

[3] = solubility observations in water and organic solvents; type: physicochemical

## CN(C)C(=O)/C(C#N)=N/O [H(DCO)]
[1]
  pKa (pH titration): 5.52 ± 0.03

## N#C/C(=N\O)C(N)=O [H(ACO)]
[1]
  pKa (pH titration): 5.034 ± 0.002

## CCN(CC)C(=O)/C(C#N)=N/O [compound 1, 2-cyano-2-oximino-N,N′-diethylaminoacetamide]
[2]
  pKa: 5.622 ± 0.005
[3]; solvent named in the value
  solubility in organic solvents: soluble in most organic solvents except hydrocarbons
[3]; water
  solubility in water: not well soluble in water; also recorded: insoluble in water

Reference: patent publication US9982188B2, “Near-infrared emitters” (MISSOURI STATE UNIVERSITY, priority 2015, dated 2018)
